Key:
Test in all cases: greenhouse pre-emergence herbicidal test
Format in all cases: in vivo
Conditions in all cases: 250 g/ha, scale 0 to 100
Amaranthus retroflexus = tested on: Amaranthus retroflexus
Text: (§1) The culture containers used were plastic flowerpots containing loamy sand with approximately 3.0% of humus as the substrate. The seeds of the test plants were sown separately for each species.
(§2) For the pre-emergence treatment, the active ingredients, which had been suspended or emulsified in water, were applied directly after sowing by means of finely distributing nozzles. The containers were irrigated gently to promote germination and growth and subsequently covered with transparent plastic hoods until the plants had rooted. This cover caused uniform germination of the test plants, unless this had been impaired by the active ingredients.
(§3) Depending on the species, the plants were kept at 10-25° C. or 20-35° C., respectively.
(§4) The test period extended over 2 to 4 weeks. During this time, the plants were tended, and their response to the individual treatments was evaluated.
(§5) Evaluation was carried out using a scale from 0 to 100. 100 means no emergence of the plants, or complete destruction of at least the aerial moieties, and 0 means no damage, or normal course of growth. A moderate herbicidal activity is given at values of at least 60, a good herbicidal activity is given at values of at least 70, and a very good herbicidal activity is given at values of at least 85.

Echinocloa crus-galli = tested on: Echinocloa crus-galli
Text: as §1, §2, §3, §4, §5

Setaria faberi = tested on: Setaria faberi
Text: The culture containers used were plastic flowerpots containing loamy sand with approximately 3.0% of humus as the substrate. The seeds of the test plants were sown separately for each species. For the pre-emergence treatment, the active ingredients, which had been suspended or emulsified in water, were applied directly after sowing by means of finely distributing nozzles. The containers were irrigated gently to promote germination and growth and subsequently covered with transparent plastic hoods until the plants had rooted. This cover caused uniform germination of the test plants, unless this had been impaired by the active ingredients. […] The test period extended over 2 to 4 weeks. During this time, the plants were tended, and their response to the individual treatments was evaluated. Evaluation was carried out using a scale from 0 to 100. 100 means no emergence of the plants, or complete destruction of at least the aerial moieties, and 0 means no damage, or normal course of growth.

SMILES	herbicidal activity (Amaranthus retroflexus) [%]	herbicidal activity (Echinocloa crus-galli) [%]	herbicidal activity (Setaria faberi) [%]
CC(C)(F)c1nc(N)nc(Nc2c(F)cccc2OCc2ccc(F)cc2)n1 [Example 6]	100	100	100
CC(Oc1cccc(F)c1Nc1nc(N)nc(C(C)(C)F)n1)c1ccccc1 (stereo not drawn) [Example 23]	–	100	75
CC(C)(F)c1nc(N)nc(Nc2c(F)cccc2OCc2nccs2)n1 [Example 36]	100	75	–
CC1(c2nc(N)nc(Nc3c(F)cccc3OCc3ccccc3)n2)CCC1 [Example 52]	–	90	85
CC(C)(F)c1nc(N)nc(Nc2c(F)cccc2OCc2cccc(OC(F)F)c2)n1 [Example 58]	100	90	100
CC(C)(F)c1nc(N)nc(Nc2c(F)ccc(F)c2OCc2ccccc2)n1 [Example 72]	100	100	100
COc1c(F)cc(COc2cccc(F)c2Nc2nc(N)nc(C(C)(C)F)n2)cc1F [Example 73]	70	75	–
CC(C)(F)c1nc(N)nc(Nc2c(F)cccc2OCc2cc(F)cc(F)c2F)n1 [Example 74]	80	85	–
CC(C)(F)c1nc(N)nc(Nc2c(OCc3cccc(F)c3)cc(F)c(F)c2F)n1 [Example 97]	100	100	100
CC(C)(F)c1nc(N)nc(Nc2c(F)cccc2OCc2csc(Cl)c2)n1 [Example 110]	–	90	80
COC(C)(C)c1nc(N)nc(Nc2c(F)cccc2OCc2cccc(F)c2)n1 [Example 114]	–	90	90
CC(C)(F)c1nc(N)nc(Nc2c(OC(F)(F)c3ccccc3)cc(F)c(F)c2F)n1 [Example 116]	100	100	100
COC(C)(C)c1nc(N)nc(Nc2c(F)cccc2OC(F)(F)c2ccccc2)n1 [Example 117]	100	100	100
CC(C)(F)c1nc(N)nc(Nc2c(OC(F)(F)c3cccc(F)c3)cc(F)c(F)c2F)n1 [Example 129]	100	100	100
CC(C)Oc1cccc(COc2cccc(F)c2Nc2nc(N)nc(C(C)(C)F)n2)c1 [Example 132]	90	100	90
COC(C)(C)c1nc(N)nc(Nc2c(F)ccc(F)c2OCc2ccccc2)n1 [Example 135]	100	100	100
CCc1ccc(COc2c(F)ccc(F)c2Nc2nc(N)nc(C(C)(C)F)n2)cc1 [Example 140]	–	98	100
CC(C)(F)c1nc(N)nc(Nc2c(F)ccc(F)c2OC(F)(F)c2ccccc2)n1 [Example 142]	100	100	100
CC(C)(F)c1nc(N)nc(Nc2c(F)ccc(Cl)c2OCc2ccccc2)n1 [Example 148]	100	100	100
CC(C)=C(F)c1nc(N)nc(Nc2c(F)cccc2OCc2ccccc2)n1 [Example 152]	100	–	90

Source: patent publication US11992012B2, “Diaminotriazine compounds” (BASF SE, priority 2018, dated 2024)
